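Following 48 hours of exposure in 96-well plates, responses at five concentrations were used to interpolate endpoints linearly. At the GI50, growth is halved. TGI: concentration producing complete growth inhibition.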
Test system: SR leukemia
Test: NCI-60 cell line screen, 48 h

| Compound | TGI | GI50 |
| --- | --- | --- |
| CC1C=C(CCCCCCCCCCCC[C@@H](O)[C@@H]2CC[C@@H]([C@@H]3CC[C@@H](C(O)CCCCCCCCCCCCC4=C[C@H](C)OC4=O)O3)O2)C(=O)O1 (stereo partly drawn) | > 55 µM |  |
| CCNC(=S)N/N=C/c1cc([N+](=O)[O-])ccc1O | 59.3 µM |  |
| COc1cc([C@@H]2OCC3C(c4ccc5c(c4)OCO5)OCC32)cc(OC)c1OC (stereo partly drawn) | > 100 µM |  |
| CCOC(=O)c1c2ccccc2n2c(N)c(C(N)=O)nnc12 | > 100 µM |  |
| Cc1cc(N(CCC#N)CCC#N)ccc1/C(N=Nc1ccc(Cl)cc1)=N\NC(=O)c1ccccc1 | > 100 µM |  |
| CC1(C)N=C(/C(Cl)=[N+](/[O-])C(=O)c2ccc(F)cc2)C(C)(C)N1O | 27.8 µM |  |
| CCC1(O)CC2CC(=O)OC2C1O (stereo not drawn) | > 100 µM |  |
| Cc1ccc(SCC(CSCCO)OCn2cnc3c2NC(N)=NC32OCCO2)cc1 (stereo not drawn) | > 100 µM |  |
| CC(=O)Nc1ccc(-c2nnc(SCC(=O)Nc3ccc([N+](=O)[O-])cc3)o2)cc1 | > 100 µM |  |
| N#CC1=C(N)N(c2ccccc2)C(c2ccco2)C1(C#N)C#N (stereo not drawn) | 51.1 µM |  |
| Cc1cc(=O)[nH]c(NN2C(Cl)C(=O)C2c2ccccc2O)n1 (stereo not drawn) | > 100 µM |  |
| CC(C)c1ccc(/C=C2/C=C(c3ccc4ccccc4c3)OC2=O)cc1 | > 52.4 µM |  |
| CC[C@@]1(C[C@H]2C[C@@]3(C(=O)OC)c4[nH]c5ccccc5c4CCN3C2=O)COC2(CCCCC2)O1 | > 100 µM |  |
| COc1ccc2c(=O)c(O)c(-c3ccc(OC)c(OC)c3)oc2c1 | > 100 µM |  |
| COc1ccc(C(OCC2OC(n3cc(C)c(=O)[nH]c3=O)CC2n2cc(Cn3cc(I)c(=O)[nH]c3=O)nn2)(c2ccccc2)c2ccccc2)cc1 (stereo not drawn) | > 100 µM |  |
| COc1ccc(CNc2nc(NCc3ccc(OC)c(OC)c3)nc(NC3CCCCC3)n2)cc1 | > 100 µM |  |
| CNC(=O)OCC1=C(COC(=O)NC)C(C)N(c2ccc(OC)cc2)C1 (stereo not drawn) | 93.8 µM |  |
| CCC12C=CCN3CCC4(C(=C(C(=O)OC)[C@@H]1O)Nc1ccccc14)C32 (stereo partly drawn) | 4.58 µM |  |
| O=C1CCC(=O)N1n1c(Cc2ccccc2)n[nH]c1=O | > 100 µM |  |
| COc1nc(N)c(C(=O)CCl)c(=O)n1C | 42.4 µM |  |
| [N-]=[N+]=Nc1cc(=O)oc2ccccc12 | > 100 µM |  |
| CC(=O)NC1=C(NCCC(C)C)C(=O)c2ccccc2C1=O | > 50 µM |  |
| O=C(O)c1cccc2c1/C(=N/Nc1ccccc1)CC2 | > 100 µM |  |
| O=C(Cc1cccs1)N[C@@H]1C(=O)N2C(C(=O)OC(c3ccccc3)c3ccccc3)=C(CO)CS[C@H]12 | > 100 µM |  |
| O=C([O-])CC(=O)[O-].O=C([O-])CC(=O)[O-].[K+].[Pd+2] | > 100 µM | > 100 µM |
| Cc1ccccc1-n1c(=O)c2ncn(CCCl)c2n(-c2ccccc2C)c1=S | > 100 µM |  |

Test system: SF-295 CNS
Test: NCI-60 cell line screen, 48 h

| Compound | TGI | GI50 |
| --- | --- | --- |
| O=c1[nH][nH]c(=O)n1Cc1ccccc1Cn1c(=O)[nH][nH]c1=O | > 100 µM |  |
| CC1C=C(CCCCCCCCCCCC[C@@H](O)[C@@H]2CC[C@@H]([C@@H]3CC[C@@H](C(O)CCCCCCCCCCCCC4=C[C@H](C)OC4=O)O3)O2)C(=O)O1 (stereo partly drawn) | > 100 µM |  |
| CCNC(=S)N/N=C/c1cc([N+](=O)[O-])ccc1O | > 100 µM |  |
| COc1cc([C@@H]2OCC3C(c4ccc5c(c4)OCO5)OCC32)cc(OC)c1OC (stereo partly drawn) | > 100 µM |  |
| CCOC(=O)c1c2ccccc2n2c(N)c(C(N)=O)nnc12 | > 100 µM |  |
| Cc1cc(N(CCC#N)CCC#N)ccc1/C(N=Nc1ccc(Cl)cc1)=N\NC(=O)c1ccccc1 | 77.6 µM |  |
| CCc1ccc(CCN2CCCCC2)nc1 | > 100 µM |  |
| N#CN=C(N(Cc1ccccc1)Cc1ccccc1)N(Cc1ccccc1)Cc1ccccc1 | > 100 µM |  |
| CNC(=O)C(C)C1CCC2(C)C=CC(=O)C(C)=C2C1O (stereo not drawn) | > 70.8 µM |  |
| CC(C)C1/C(=N/O)CC(c2ccccc2)N(N=O)C1c1ccccc1 (stereo not drawn) | > 100 µM |  |
| CC1(C)N=C(/C(Cl)=[N+](/[O-])C(=O)c2ccc(F)cc2)C(C)(C)N1O | 78.4 µM |  |
| COc1cc(/C=C2\S/C(=N/Nc3nc(-c4ccc(Br)cc4)cs3)NC2=O)cc(OC)c1OC | 36.6 µM |  |
| CCCNC1=C2CC(C)CC(OC)[C@@H](O)[C@H](C)/C=C(\C)C(OC(N)=O)C(OC)/C=C\C=C(/C)C(=O)NC(=CC1=O)C2=O (stereo partly drawn) | 19.9 µM |  |
| C[n+]1c2ccccc2c(/C=N\NS(=O)(=O)c2ccc(O)c(C(=O)O)c2)c2ccccc21 | > 100 µM |  |
| O=C(Nc1ccc(C2=NCCN2)cc1)c1cncc(C(=O)Nc2ccc(C3=NCCN3)cc2)c1 | > 100 µM |  |
| CCC1(O)CC2CC(=O)OC2C1O (stereo not drawn) | > 100 µM |  |
| Cc1ccc(SCC(CSCCO)OCn2cnc3c2NC(N)=NC32OCCO2)cc1 (stereo not drawn) | > 100 µM |  |
| CC(=O)Nc1ccc(-c2nnc(SCC(=O)Nc3ccc([N+](=O)[O-])cc3)o2)cc1 | 27.4 µM |  |
| N.N.N.N.O=[N+]([O-])[O-].[Co+3].[N-]=[N+]=[N-].[N-]=[N+]=[N-] | > 100 µM |  |
| N#CC1=C(N)N(c2ccccc2)C(c2ccco2)C1(C#N)C#N (stereo not drawn) | 93.9 µM |  |
| Cc1cc(=O)[nH]c(NN2C(Cl)C(=O)C2c2ccccc2O)n1 (stereo not drawn) | > 100 µM |  |
| CC(C)c1ccc(/C=C2/C=C(c3ccc4ccccc4c3)OC2=O)cc1 | > 100 µM |  |
| CC[C@@]1(C[C@H]2C[C@@]3(C(=O)OC)c4[nH]c5ccccc5c4CCN3C2=O)COC2(CCCCC2)O1 | > 100 µM |  |

| Compound | TGI | GI50 |
| --- | --- | --- |
| COc1ccc2c(=O)c(O)c(-c3ccc(OC)c(OC)c3)oc2c1 | 33.1 µM |  |
| COc1ccc(C(OCC2OC(n3cc(C)c(=O)[nH]c3=O)CC2n2cc(Cn3cc(I)c(=O)[nH]c3=O)nn2)(c2ccccc2)c2ccccc2)cc1 (stereo not drawn) | > 100 µM |  |
| O=S1(=O)NC(=NCc2c[nH]c3ccccc23)N(c2ccccc2)c2ccncc21 | > 100 µM |  |
| CC(C)CCCCCCCCCCCCC(=O)NCC(=O)NC1C(C)OC(Nc2ncnc3c2ncn3C)C(O)C1O (stereo not drawn) | > 100 µM |  |
| COc1ccc(CNc2nc(NCc3ccc(OC)c(OC)c3)nc(NC3CCCCC3)n2)cc1 | > 100 µM |  |
| C=C(C1=CC(=O)C(C)(C)O1)[C@@H]1CC=C([C@@H]2CC[C@H]3[C@@]2(C)CC[C@H]2C(C)(C)C(=O)[C@H](O)C[C@]32C)[C@H](O)O1 | 22 µM |  |
| CC1=CC2C(O1)C1C(=O)C=CC(=O)C1=CC2[N+](=O)[O-] (stereo not drawn) | 34.5 µM |  |
| Cc1cn(C2CC(n3cc(Cn4cc(I)c(=O)[nH]c4=O)nn3)C(CO)O2)c(=O)[nH]c1=O (stereo not drawn) | > 100 µM |  |
| CNC(=O)OCC1=C(COC(=O)NC)C(C)N(c2ccc(OC)cc2)C1 (stereo not drawn) | > 100 µM |  |
| CCC12C=CCN3CCC4(C(=C(C(=O)OC)[C@@H]1O)Nc1ccccc14)C32 (stereo partly drawn) | 5.7 µM |  |
| O=C1CCC(=O)N1n1c(Cc2ccccc2)n[nH]c1=O | > 100 µM |  |
| O=C(O)CN(CC(=O)O)C1CCCCC1N(CC(=O)O)CC(=O)NCCN=C=S (stereo not drawn) | > 100 µM |  |
| Cc1nc(C(N)=S)sc1/C(CC(=O)C(=O)Nc1cccc2ccc(O)cc12)=N\NC(=O)c1ccncc1 | > 100 µM |  |
| Oc1cc2c3c(c1)c1cc4c(cc1c[n+]3CC2)OCO4 | > 100 µM |  |
| Cc1cn(C2CC(N(O)C(N)=O)C(CO)O2)c(=O)[nH]c1=O (stereo not drawn) | > 100 µM |  |
| COc1nc(N)c(C(=O)CCl)c(=O)n1C | 29.4 µM |  |
| O=C1CCC23CC(C=CC=C12)n1c(=O)n(-c2ccccc2)c(=O)n13 (stereo not drawn) | > 100 µM |  |
| [N-]=[N+]=Nc1cc(=O)oc2ccccc12 | > 100 µM |  |
| CC(=O)NC1=C(NCCC(C)C)C(=O)c2ccccc2C1=O | > 50 µM |  |
| O=C(O)c1cccc2c1/C(=N/Nc1ccccc1)CC2 | > 100 µM |  |
| O=C(Cc1cccs1)N[C@@H]1C(=O)N2C(C(=O)OC(c3ccccc3)c3ccccc3)=C(CO)CS[C@H]12 | > 100 µM |  |
| O=C([O-])CC(=O)[O-].O=C([O-])CC(=O)[O-].[K+].[Pd+2] | > 100 µM | > 100 µM |
| Cc1ccccc1-n1c(=O)c2ncn(CCCl)c2n(-c2ccccc2C)c1=S | > 100 µM |  |

Test system: HCT-15 colon
Test: NCI-60 cell line screen, 48 h

| Compound | TGI | GI50 |
| --- | --- | --- |
| O=c1[nH][nH]c(=O)n1Cc1ccccc1Cn1c(=O)[nH][nH]c1=O | > 100 µM |  |
| CC1C=C(CCCCCCCCCCCC[C@@H](O)[C@@H]2CC[C@@H]([C@@H]3CC[C@@H](C(O)CCCCCCCCCCCCC4=C[C@H](C)OC4=O)O3)O2)C(=O)O1 (stereo partly drawn) | > 100 µM |  |
| CCNC(=S)N/N=C/c1cc([N+](=O)[O-])ccc1O | > 100 µM |  |
| COc1cc([C@@H]2OCC3C(c4ccc5c(c4)OCO5)OCC32)cc(OC)c1OC (stereo partly drawn) | > 100 µM |  |
| CCOC(=O)c1c2ccccc2n2c(N)c(C(N)=O)nnc12 | > 100 µM |  |
| Cc1cc(N(CCC#N)CCC#N)ccc1/C(N=Nc1ccc(Cl)cc1)=N\NC(=O)c1ccccc1 | > 100 µM |  |
| CCc1ccc(CCN2CCCCC2)nc1 | > 100 µM |  |
| N#CN=C(N(Cc1ccccc1)Cc1ccccc1)N(Cc1ccccc1)Cc1ccccc1 | > 100 µM |  |
| CNC(=O)C(C)C1CCC2(C)C=CC(=O)C(C)=C2C1O (stereo not drawn) | > 100 µM |  |
| CC(C)C1/C(=N/O)CC(c2ccccc2)N(N=O)C1c1ccccc1 (stereo not drawn) | > 100 µM |  |
| CC1(C)N=C(/C(Cl)=[N+](/[O-])C(=O)c2ccc(F)cc2)C(C)(C)N1O | 26.9 µM |  |
| COC(=O)[C@H](Cc1c[nH]c2ccccc12)NP(=O)(O)OCC1C=CC(n2cc(C)c(=O)[nH]c2=O)O1 (stereo partly drawn) | > 100 µM |  |
| COc1cc(/C=C2\S/C(=N/Nc3nc(-c4ccc(Br)cc4)cs3)NC2=O)cc(OC)c1OC | 36.1 µM |  |
| CCCNC1=C2CC(C)CC(OC)[C@@H](O)[C@H](C)/C=C(\C)C(OC(N)=O)C(OC)/C=C\C=C(/C)C(=O)NC(=CC1=O)C2=O (stereo partly drawn) | 28.1 µM | 0.46 µM |
| C[n+]1c2ccccc2c(/C=N\NS(=O)(=O)c2ccc(O)c(C(=O)O)c2)c2ccccc21 | > 100 µM |  |
| O=C(Nc1ccc(C2=NCCN2)cc1)c1cncc(C(=O)Nc2ccc(C3=NCCN3)cc2)c1 | > 100 µM |  |
| CCC1(O)CC2CC(=O)OC2C1O (stereo not drawn) | > 100 µM |  |
| Cc1ccc(SCC(CSCCO)OCn2cnc3c2NC(N)=NC32OCCO2)cc1 (stereo not drawn) | > 100 µM |  |

From PubChem BioAssay (NCI)
